{"source": "paper PMC4076210", "about": "“Discovery of Novel AKT Inhibitors with Enhanced Anti-Tumor Effects in Combination with the MEK Inhibitor” (PLoS ONE, 2014)", "key": {"[1]": {"biological_target": "T1, CHK1(h) (Homo sapiens, UniProt O14757)", "T1 construct": "purchased Millipore KinaseProfiler", "T1 sequence (O14757 1-476)": "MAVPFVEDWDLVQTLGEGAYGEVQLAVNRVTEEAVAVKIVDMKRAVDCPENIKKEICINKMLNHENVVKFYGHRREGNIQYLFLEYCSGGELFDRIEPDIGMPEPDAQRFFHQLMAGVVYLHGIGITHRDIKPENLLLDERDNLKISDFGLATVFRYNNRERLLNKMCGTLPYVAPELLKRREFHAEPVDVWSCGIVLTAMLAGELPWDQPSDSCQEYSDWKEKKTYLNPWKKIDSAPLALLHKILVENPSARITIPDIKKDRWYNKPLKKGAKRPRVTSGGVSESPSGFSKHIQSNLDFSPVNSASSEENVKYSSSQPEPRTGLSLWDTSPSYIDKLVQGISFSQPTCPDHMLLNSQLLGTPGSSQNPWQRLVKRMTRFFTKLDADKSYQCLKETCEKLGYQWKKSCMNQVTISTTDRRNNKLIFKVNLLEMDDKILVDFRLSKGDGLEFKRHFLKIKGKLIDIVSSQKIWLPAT", "experiment": "Kinase panel", "format": "biochemical"}, "[2]": {"biological_target": "T2, EGFR(L861Q)(h) (Homo sapiens, UniProt P00533, L861Q)", "T2 construct": "purchased Millipore KinaseProfiler", "T2 sequence (P00533 25-1210 L861Q)": "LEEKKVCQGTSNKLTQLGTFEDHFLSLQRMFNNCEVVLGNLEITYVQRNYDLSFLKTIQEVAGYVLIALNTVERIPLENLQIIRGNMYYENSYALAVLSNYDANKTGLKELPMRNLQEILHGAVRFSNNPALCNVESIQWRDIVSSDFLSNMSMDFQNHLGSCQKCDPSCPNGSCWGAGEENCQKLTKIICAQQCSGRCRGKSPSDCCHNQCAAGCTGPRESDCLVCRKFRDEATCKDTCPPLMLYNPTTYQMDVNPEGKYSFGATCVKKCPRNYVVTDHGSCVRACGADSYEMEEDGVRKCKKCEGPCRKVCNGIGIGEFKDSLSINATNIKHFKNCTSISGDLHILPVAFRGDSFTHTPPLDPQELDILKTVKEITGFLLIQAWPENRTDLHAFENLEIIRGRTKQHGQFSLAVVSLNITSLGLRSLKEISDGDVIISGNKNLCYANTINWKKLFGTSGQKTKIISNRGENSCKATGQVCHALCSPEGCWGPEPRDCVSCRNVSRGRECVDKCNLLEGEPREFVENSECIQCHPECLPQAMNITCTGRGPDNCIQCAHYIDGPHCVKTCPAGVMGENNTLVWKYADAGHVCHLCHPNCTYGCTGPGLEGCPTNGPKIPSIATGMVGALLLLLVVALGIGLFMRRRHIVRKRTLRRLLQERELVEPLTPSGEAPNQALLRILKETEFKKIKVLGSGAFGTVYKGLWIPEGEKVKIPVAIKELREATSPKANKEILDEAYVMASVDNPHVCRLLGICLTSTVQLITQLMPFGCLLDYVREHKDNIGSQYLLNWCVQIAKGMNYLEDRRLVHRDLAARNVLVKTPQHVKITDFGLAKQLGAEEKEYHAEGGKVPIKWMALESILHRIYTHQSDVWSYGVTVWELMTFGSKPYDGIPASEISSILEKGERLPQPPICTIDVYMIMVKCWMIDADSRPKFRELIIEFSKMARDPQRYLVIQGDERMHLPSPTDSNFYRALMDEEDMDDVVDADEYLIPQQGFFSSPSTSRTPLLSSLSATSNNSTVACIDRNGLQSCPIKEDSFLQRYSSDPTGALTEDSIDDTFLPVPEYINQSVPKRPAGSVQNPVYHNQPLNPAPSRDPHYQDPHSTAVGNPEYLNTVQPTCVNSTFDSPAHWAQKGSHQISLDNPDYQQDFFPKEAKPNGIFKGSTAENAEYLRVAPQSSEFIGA", "experiment": "Kinase panel", "format": "biochemical"}, "[3]": {"biological_target": "T3, FGFR2(N549H)(h) (Homo sapiens, UniProt P21802, N549H)", "T3 construct": "purchased Millipore KinaseProfiler", "T3 sequence (P21802 22-821 N549H)": "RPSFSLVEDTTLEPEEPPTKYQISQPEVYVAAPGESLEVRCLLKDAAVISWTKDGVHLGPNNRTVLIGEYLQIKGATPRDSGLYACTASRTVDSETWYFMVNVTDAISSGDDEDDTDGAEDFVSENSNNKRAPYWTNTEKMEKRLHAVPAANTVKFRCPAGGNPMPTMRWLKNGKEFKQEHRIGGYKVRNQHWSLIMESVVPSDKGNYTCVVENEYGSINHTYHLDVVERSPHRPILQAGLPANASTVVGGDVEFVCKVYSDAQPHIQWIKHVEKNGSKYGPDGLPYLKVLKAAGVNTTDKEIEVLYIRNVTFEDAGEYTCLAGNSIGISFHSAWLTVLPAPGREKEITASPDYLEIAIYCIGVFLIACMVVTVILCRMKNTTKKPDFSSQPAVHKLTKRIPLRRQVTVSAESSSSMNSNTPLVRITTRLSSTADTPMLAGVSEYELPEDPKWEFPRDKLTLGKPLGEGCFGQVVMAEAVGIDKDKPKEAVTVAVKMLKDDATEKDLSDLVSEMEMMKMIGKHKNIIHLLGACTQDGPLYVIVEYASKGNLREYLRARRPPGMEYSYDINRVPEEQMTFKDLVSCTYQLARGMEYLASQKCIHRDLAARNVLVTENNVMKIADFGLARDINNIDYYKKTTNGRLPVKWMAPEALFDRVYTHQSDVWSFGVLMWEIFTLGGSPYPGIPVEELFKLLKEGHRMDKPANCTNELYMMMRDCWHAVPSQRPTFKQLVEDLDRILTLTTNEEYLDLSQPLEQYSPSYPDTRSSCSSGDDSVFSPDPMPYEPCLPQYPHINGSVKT", "experiment": "Kinase panel", "format": "biochemical"}, "[4]": {"biological_target": "T4, Mer(h) (Homo sapiens, UniProt Q12866)", "T4 construct": "purchased Millipore KinaseProfiler", "T4 sequence (Q12866 21-999)": "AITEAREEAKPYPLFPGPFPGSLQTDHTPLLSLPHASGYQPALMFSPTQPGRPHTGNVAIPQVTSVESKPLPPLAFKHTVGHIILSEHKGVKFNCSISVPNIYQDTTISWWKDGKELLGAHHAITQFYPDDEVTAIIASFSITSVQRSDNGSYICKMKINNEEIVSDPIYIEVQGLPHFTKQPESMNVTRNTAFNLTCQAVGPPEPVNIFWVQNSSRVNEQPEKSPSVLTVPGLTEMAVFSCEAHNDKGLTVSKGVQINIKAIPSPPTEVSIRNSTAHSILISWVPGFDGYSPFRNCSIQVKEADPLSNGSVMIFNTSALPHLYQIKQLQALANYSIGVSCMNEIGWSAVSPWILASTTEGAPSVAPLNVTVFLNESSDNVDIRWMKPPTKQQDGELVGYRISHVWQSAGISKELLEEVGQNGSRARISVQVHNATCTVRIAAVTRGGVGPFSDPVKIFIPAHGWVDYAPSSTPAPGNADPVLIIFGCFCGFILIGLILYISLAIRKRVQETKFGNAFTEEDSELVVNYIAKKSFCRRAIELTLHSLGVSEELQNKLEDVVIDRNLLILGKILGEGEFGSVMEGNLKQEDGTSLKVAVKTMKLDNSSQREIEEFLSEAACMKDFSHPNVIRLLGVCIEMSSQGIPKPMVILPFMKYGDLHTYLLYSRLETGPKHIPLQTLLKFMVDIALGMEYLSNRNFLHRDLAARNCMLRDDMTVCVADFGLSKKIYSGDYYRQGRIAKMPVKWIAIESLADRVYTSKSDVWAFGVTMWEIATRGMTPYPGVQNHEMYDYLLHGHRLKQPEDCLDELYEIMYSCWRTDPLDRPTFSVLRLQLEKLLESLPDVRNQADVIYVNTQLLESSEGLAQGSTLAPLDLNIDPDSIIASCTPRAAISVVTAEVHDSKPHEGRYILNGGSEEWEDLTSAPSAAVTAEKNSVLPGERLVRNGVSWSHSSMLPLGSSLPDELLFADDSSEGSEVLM", "experiment": "Kinase panel", "format": "biochemical"}, "[5]": {"biological_target": "T5, Ret(h) (Homo sapiens, UniProt P07949)", "T5 construct": "purchased Millipore KinaseProfiler", "experiment": "Kinase panel", "format": "biochemical"}, "[6]": {"biological_target": "T6, Ron(h) (Homo sapiens, UniProt Q04912)", "T6 construct": "purchased Millipore KinaseProfiler", "T6 sequence (Q04912 25-1400)": "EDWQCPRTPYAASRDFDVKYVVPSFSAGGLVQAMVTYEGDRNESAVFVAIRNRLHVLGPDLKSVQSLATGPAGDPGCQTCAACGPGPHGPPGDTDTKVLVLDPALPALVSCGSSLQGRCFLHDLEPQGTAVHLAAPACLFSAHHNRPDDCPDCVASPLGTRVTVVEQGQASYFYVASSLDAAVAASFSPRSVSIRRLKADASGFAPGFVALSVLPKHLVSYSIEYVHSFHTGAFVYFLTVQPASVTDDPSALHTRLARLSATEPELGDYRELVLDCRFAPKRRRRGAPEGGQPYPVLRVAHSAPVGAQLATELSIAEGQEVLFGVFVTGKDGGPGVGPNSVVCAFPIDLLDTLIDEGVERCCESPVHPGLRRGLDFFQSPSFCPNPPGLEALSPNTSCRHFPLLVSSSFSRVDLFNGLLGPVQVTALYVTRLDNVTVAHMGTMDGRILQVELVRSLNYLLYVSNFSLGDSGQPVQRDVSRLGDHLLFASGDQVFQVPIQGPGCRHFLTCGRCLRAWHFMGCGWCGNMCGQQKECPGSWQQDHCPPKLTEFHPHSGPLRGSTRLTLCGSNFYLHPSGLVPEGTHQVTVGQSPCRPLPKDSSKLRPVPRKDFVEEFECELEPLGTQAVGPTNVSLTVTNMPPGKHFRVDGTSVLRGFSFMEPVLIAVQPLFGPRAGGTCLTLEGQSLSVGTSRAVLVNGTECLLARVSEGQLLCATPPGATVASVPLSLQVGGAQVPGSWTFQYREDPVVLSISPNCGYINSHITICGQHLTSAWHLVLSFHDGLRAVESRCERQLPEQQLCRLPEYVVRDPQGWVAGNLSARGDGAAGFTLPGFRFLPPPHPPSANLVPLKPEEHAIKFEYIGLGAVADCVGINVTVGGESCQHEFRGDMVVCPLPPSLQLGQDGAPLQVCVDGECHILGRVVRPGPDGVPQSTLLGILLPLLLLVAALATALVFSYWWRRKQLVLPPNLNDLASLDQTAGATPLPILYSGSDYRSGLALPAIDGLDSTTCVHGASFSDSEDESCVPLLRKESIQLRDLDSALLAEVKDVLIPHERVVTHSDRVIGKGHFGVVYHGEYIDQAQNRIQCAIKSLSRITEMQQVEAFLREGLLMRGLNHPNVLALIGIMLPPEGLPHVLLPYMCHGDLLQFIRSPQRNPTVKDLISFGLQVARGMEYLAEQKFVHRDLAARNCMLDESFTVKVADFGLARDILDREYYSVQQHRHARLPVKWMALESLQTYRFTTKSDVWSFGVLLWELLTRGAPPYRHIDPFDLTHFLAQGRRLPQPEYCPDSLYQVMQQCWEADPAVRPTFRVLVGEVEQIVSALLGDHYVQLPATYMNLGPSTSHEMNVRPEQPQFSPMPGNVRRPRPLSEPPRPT", "experiment": "Kinase panel", "format": "biochemical"}, "[7]": {"biological_target": "T7, SAPK4(h) (Homo sapiens, UniProt O15264)", "T7 construct": "purchased Millipore KinaseProfiler", "T7 sequence (O15264 1-365)": "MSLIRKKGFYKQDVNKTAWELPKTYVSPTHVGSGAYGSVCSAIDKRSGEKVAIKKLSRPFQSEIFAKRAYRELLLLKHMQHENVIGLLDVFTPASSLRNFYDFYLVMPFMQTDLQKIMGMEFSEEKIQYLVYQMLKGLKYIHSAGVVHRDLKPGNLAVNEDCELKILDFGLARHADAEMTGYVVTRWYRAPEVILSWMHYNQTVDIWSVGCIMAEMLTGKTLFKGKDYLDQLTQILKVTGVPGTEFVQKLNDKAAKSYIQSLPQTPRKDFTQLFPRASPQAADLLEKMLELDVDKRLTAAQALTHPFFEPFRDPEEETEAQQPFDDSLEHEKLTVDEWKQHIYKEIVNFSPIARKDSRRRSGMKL", "experiment": "Kinase panel", "format": "biochemical"}, "[8]": {"biological_target": "T8, TrkA(h) (Homo sapiens, UniProt P04629)", "T8 construct": "purchased Millipore KinaseProfiler", "T8 sequence (P04629 33-796)": "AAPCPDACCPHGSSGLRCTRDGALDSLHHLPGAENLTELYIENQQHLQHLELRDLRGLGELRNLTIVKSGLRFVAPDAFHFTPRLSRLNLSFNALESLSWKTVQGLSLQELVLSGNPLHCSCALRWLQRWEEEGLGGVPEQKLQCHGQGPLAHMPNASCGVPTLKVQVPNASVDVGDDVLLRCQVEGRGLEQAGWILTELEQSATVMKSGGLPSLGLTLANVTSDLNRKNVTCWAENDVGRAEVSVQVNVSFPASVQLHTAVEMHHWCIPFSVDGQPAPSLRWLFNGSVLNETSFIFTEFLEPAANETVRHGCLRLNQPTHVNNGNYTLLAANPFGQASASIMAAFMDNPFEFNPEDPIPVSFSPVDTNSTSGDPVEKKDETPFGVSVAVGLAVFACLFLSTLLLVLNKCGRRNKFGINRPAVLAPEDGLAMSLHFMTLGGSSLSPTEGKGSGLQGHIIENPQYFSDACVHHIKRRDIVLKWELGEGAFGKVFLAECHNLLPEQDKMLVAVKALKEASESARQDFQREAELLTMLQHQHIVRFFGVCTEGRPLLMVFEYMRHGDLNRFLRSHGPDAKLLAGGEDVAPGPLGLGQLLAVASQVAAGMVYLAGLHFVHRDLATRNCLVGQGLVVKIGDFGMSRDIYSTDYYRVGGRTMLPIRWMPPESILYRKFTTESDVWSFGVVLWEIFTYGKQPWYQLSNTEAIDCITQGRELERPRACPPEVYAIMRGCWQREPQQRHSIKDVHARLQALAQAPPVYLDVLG", "experiment": "Kinase panel", "format": "biochemical"}, "[9]": {"biological_target": "PKCγ (Homo sapiens, UniProt P05129)", "experiment": "Kinase IC50 assay", "format": "biochemical"}, "[10]": {"system": "pGSK-3β in BT474", "experiment": "phospho-GSK3β ELISA", "format": "cell-based", "conditions": "Homo sapiens, BT-474; BT474, 1 h, mean ± std dev", "procedure": "(§1) ELISA plates were prepared by coating with anti-GSK3β antibody (R&D Systems), and blocked with 5% Milk/0.1% Tween-20. Cells were seeded at 25,000 cells/96-well overnight and treated with DMSO or various concentrations of drug for 1 h. Cells were lysed in 20 mM Tris-HCl (pH 8.0), 137 mM NaCl, 2 mM EDTA, 10% glycerol and 1% Triton X-100 and lysates transferred to ELISA plates and incubated overnight. The plates were washed and incubated with rabbit anti-phospho-GSK3β (Ser9) antibody (R&D Systems) for 1 h. After washing, plates were developed using HRP-linked anti-rabbit IgG, and 3,3′,5,5′-tetramethylbenzidine as substrate. Absorption was measured in a microplate spectrophotometer at 450 nm. The phospho-PRAS40 ELISA followed similar methodology as above with the exception of using a commercially available PRAS40 (pThr246) kit (Biosource) and following manufacturers' instructions for the ELISA analysis."}, "[11]": {"system": "pGSK-3β in LNCaP", "experiment": "phospho-GSK3β ELISA", "format": "cell-based", "conditions": "Homo sapiens, 1 h, mean ± std dev", "procedure": "as §1"}}, "note": "Like-named read-outs stand apart in the source and are kept apart here.", "data": [{"smiles": "Cn1ncc(Cl)c1-c1cc(C(=O)N[C@H](CN)Cc2ccc(F)c(F)c2)oc1Cl", "note": "[GSK2141795]", "values": [{"measurement": "inhibition at 0.5 µM", "setting": "[1]; 0.5 µM, read-out: % Inhibition", "result": -9, "unit": "%"}, {"measurement": "inhibition at 10 µM", "setting": "[1]; 10 µM, read-out: % Inhibition", "result": 21, "unit": "%"}, {"measurement": "inhibition at 0.5 µM", "setting": "[2]; 0.5 µM, read-out: % Inhibition", "result": -13, "unit": "%"}, {"measurement": "inhibition at 10 µM", "setting": "[2]; 10 µM, read-out: % Inhibition", "result": 21, "unit": "%"}, {"measurement": "inhibition at 0.5 µM", "setting": "[3]; 0.5 µM, read-out: % Inhibition", "result": -2, "unit": "%"}, {"measurement": "inhibition at 10 µM", "setting": "[3]; 10 µM, read-out: % Inhibition", "result": -5, "unit": "%"}, {"measurement": "inhibition at 0.5 µM", "setting": "[4]; 0.5 µM, read-out: % Inhibition", "result": 10, "unit": "%"}, {"measurement": "inhibition at 10 µM", "setting": "[4]; 10 µM, read-out: % Inhibition", "result": 63, "unit": "%"}, {"measurement": "inhibition at 0.5 µM", "setting": "[5]; 0.5 µM, read-out: % Inhibition", "result": -19, "unit": "%"}, {"measurement": "inhibition at 10 µM", "setting": "[5]; 10 µM, read-out: % Inhibition", "result": 31, "unit": "%"}, {"measurement": "inhibition at 0.5 µM", "setting": "[6]; 0.5 µM, read-out: % Inhibition", "result": 5, "unit": "%"}, {"measurement": "inhibition at 10 µM", "setting": "[6]; 10 µM, read-out: % Inhibition", "result": 73, "unit": "%"}, {"measurement": "inhibition at 0.5 µM", "setting": "[7]; 0.5 µM, read-out: % Inhibition", "result": -9, "unit": "%"}, {"measurement": "inhibition at 10 µM", "setting": "[7]; 10 µM, read-out: % Inhibition", "result": 54, "unit": "%"}, {"measurement": "inhibition at 0.5 µM", "setting": "[8]; 0.5 µM, read-out: % Inhibition", "result": -13, "unit": "%"}, {"measurement": "inhibition at 10 µM", "setting": "[8]; 10 µM, read-out: % Inhibition", "result": 63, "unit": "%"}, {"measurement": "IC50", "setting": "[9]", "result": 200, "unit": "nM"}, {"measurement": "IC50", "setting": "[10]", "result": "143 ± 21", "unit": "nM"}, {"measurement": "IC50", "setting": "[11]", "result": "34 ± 5", "unit": "nM"}]}, {"smiles": "Cn1ncc(Cl)c1-c1cc(C(=O)N[C@H](CN)Cc2cccc(F)c2)sc1Cl", "note": "[GSK2110183]", "values": [{"measurement": "inhibition at 0.5 µM", "setting": "[1]", "result": 13, "unit": "%"}, {"measurement": "inhibition at 10 µM", "setting": "[1]", "result": 34, "unit": "%"}, {"measurement": "inhibition at 0.5 µM", "setting": "[2]", "result": -4, "unit": "%"}, {"measurement": "inhibition at 10 µM", "setting": "[2]", "result": 21, "unit": "%"}, {"measurement": "inhibition at 0.5 µM", "setting": "[3]", "result": -1, "unit": "%"}, {"measurement": "inhibition at 10 µM", "setting": "[3]", "result": -1, "unit": "%"}, {"measurement": "inhibition at 0.5 µM", "setting": "[4]", "result": 2, "unit": "%"}, {"measurement": "inhibition at 10 µM", "setting": "[4]", "result": 65, "unit": "%"}, {"measurement": "inhibition at 0.5 µM", "setting": "[5]", "result": 4, "unit": "%"}, {"measurement": "inhibition at 10 µM", "setting": "[5]", "result": 14, "unit": "%"}, {"measurement": "inhibition at 0.5 µM", "setting": "[6]", "result": 12, "unit": "%"}, {"measurement": "inhibition at 10 µM", "setting": "[6]", "result": 30, "unit": "%"}, {"measurement": "inhibition at 0.5 µM", "setting": "[7]", "result": 3, "unit": "%"}, {"measurement": "inhibition at 10 µM", "setting": "[7]", "result": 64, "unit": "%"}, {"measurement": "inhibition at 0.5 µM", "setting": "[8]", "result": 9, "unit": "%"}, {"measurement": "inhibition at 10 µM", "setting": "[8]", "result": 69, "unit": "%"}, {"measurement": "IC50", "setting": "[9]", "result": "> 1000", "unit": "nM"}, {"measurement": "IC50", "setting": "[10]", "result": "316 ± 91", "unit": "nM"}, {"measurement": "IC50", "setting": "[11]", "result": "76 ± 16", "unit": "nM"}]}]}
